Laboratory results taken from patent publication US6921775B2, “Methods for modulating brain damage” (Children's Medical Center Corporation, priority 2001, dated 2005).

How the values were obtained:
[1] = test system: O4+ OLs in subcortical white matter; assay: OL proliferation and maturation in vivo in pups without insult; set-up: species or system rat; settings: 30 mg/kg topiramate or 20 mg/kg NBQX; for number of proliferating (BrdU labeled, O4+) OLs in subcortical white matter: 4 injections every 12 hours at P7 and P8, no insult, vs vehicle; for maturation of white matter (O4, O1, MBP immunohistostaining), qualitative: 4 injections every 12 hours at P7 and P8, at P9 or P11
Experimental: Litters of male Long Evans rat pups (Charles River Laboratories, Wilmington, Mass.) were raised with dams in a temperature-controlled environment with 12 hour light-dark cycles. Pups underwent carotid ligation and hypoxia at post-natal-day (P)7. They were recovered on a thermal blanket at 33-34° C. (baseline temperature for P7 rats) and returned to their dam for 48-96 hours prior to sacrifice. Treated pups were given intra-peritoneal (i.p.) injections of 0.1 cc solutions of topiramate, NBQX or vehicle every 12 hours for 48 hours at P7 and P8 for treatment, control and normal development studies.
Oligodendrocyte maturation and myelin expression were evaluated in animals treated for 48 hours with topiramate as compared with normal development. The sub-cortical white matter was evaluated by immunocytochemistry with antibodies to O4, O1 and myelin basic protein (MBP), for changes in pre-myelinating OL populations and in the pattern of MBP expression in rats sacrificed at P9, acutely after treatment. To evaluate for any permanent effect on mature myelination, the quantity of MBP at P28 in animals treated for 48 hours at P7/8 with topiramate was compared with untreated littermates by Western blot.
Histological and immunocytochemical (ICC) analysis was carried out on serial 20-30 μm coronal sections, cut by either cryostat (for pre-mounted sections) or freezing microtome (floating sections) from the anterior extent of the lateral ventricles through the posterior extent of the dorsal hippocampus. Representative sections from all experimental animals were stained with hematoxylin and eosin (HE) for routine evaluation.
For ICC evaluation, adjacent mounted sections were incubated in 5-10% normal goat serum for one hour to block non-specific binding and concurrently permeabilized in 0.1% Triton X-100. Slides were incubated with MBP antibody (SMA-99, Sternberger Monoclonals, Baltimore, Md.) at a dilution of 1:800 in PBS with 1% normal goat serum plus 0.1% Triton overnight at 4° C., followed by Oregon Green (Molecular Probes, Eugene, Oreg.) anti-mouse IgG secondary antibody for one hour at room temperature. […]
Litters were divided and pups received 4 injections, one every 12 hours for 48 hours at P7 and P8, of either vehicle (n=6), 30 mg/kg topiramate (n=7) or 20 mg/kg NBQX (n=7). […] At the completion of 48 hours the animals were sacrificed and the number of BrdU labeled, O4+ OLs present in the subcortical white matter of coronal sections (n=20/group) were counted (FIG. 5B). […] Furthermore, qualitative analysis of white matter by immunohistostaining for OL stage-specific markers O4, O1 and MBP was carried out in serial sections of the same animals evaluated above.

[2] = test system: calcium permeable AMPA/kainate receptors; assay: AMPA induced cobalt uptake in coronal brain slices; assay type: cell-based; settings: P7 rat slices, 100 μM AMPA, 100 μM MK-801, 20 minute
From the text: P6/7 Long Evans rat pups were sacrificed by decapitation and the brains were removed quickly and placed in ice cold rat ACSF. 300 μm coronal slices were cut on a live-slice dedicated vibratome while continually maintained in oxygen bubbled, cold ACSF. Slices were transferred to an oxygen chamber, where they were maintained at room temperature.
300 μm thick vibratome cut coronal slices were collected from the anterior commissure to the anterior aspect of the thalamus and placed in oxygen-rich ice cold rat ACSF. Stabilized slices were transferred to a room temperature oxygen chamber and maintained in ACSF. Stable slices were transferred to modified ACSF containing low calcium and 5 mM CoCL2 and stimulated with 100 μM AMPA in the presence of 100 μM MK-801 and with or without topiramate in varying concentrations. Slices were incubated at room temperature for 20 minutes then rinsed in ACSF, followed by 3 rinses in ASCF containing 2 mM EDTA to chelate and remove any unbound cobalt. Cobalt was then precipitated with ammonium […]. Sections were fixed in 4% paraformaldehyde for 10 minutes, rinsed and stored in PBS. Silver enhancement of precipitate was carried out for improved visualization. Slices were transferred to enhancement solution (10% sucrose, 15.5 mM hydroquinone, 42 mM citric acid) and warmed to 50° C. Slices were moved to similar solution containing 0.1% silver nitrate, then incubated at 50° C. for 45 minutes, with solution changes every 15 minutes. Sections were rinsed in PBS then cryoprotected in 30% sucrose solution and 40 μm sections, cut using a freezing microtome, were mounted on slides and analyzed.
Cortical slices were assessed for the presence of AMPA induced cobalt uptake in coronal slices from P7 rats. […] Immature OLs in pericallosal white matter at P7 show consistent cobalt uptake following 20 minute incubation with 100 μM AMPA, 100 μM MK-801 in low Ca^2+, cobalt containing rat ACSF (FIG. 6B). Cobalt-containing white matter cells were identified as OL precursors by immunolabeling with O4 surface antigen (FIG. 6C and FIG. 6D). […]

[3] = 100 μM NBQX or 50 μM topiramate

NS(=O)(=O)c1cccc2c1c([N+](=O)[O-])cc1nc(O)c(O)nc12 [NBQX, 2,3-Dioxo-6-nitro-1,2,3,4-tetrahydrobenzo[f]quinoxaline-7-sulphonamide]
number of proliferating (BrdU labeled, O4+) OLs in subcortical white matter [1]: No difference in the number of proliferating OLs was detected
maturation of white matter (O4, O1, MBP immunohistostaining), qualitative [1]: No qualitative difference in maturation was seen
cobalt uptake in immature OLs of pericallosal white matter [2, 3]: effectively blocked

CC1(C)O[C@@H]2[C@@H](CO[C@@]3(COS(N)(=O)=O)OC(C)(C)O[C@@H]23)O1 [topiramate]
number of proliferating (BrdU labeled, O4+) OLs in subcortical white matter [1]: No difference in the number of proliferating OLs was detected
maturation of white matter (O4, O1, MBP immunohistostaining), qualitative [1]: No qualitative difference in maturation was seen
cobalt uptake in immature OLs of pericallosal white matter ([2]; 10 μM topiramate): partial effect
cobalt uptake in immature OLs of pericallosal white matter [2, 3]: effectively blocked
